Data set [1] deals with mice with constipation due to overexpression of human αS. Put plainly: Oral squalamine in mice with constipation due to overexpression of human αS. The format is in vivo, mouse. Particulars: orally administered (West et al, manuscript in preparation).
Data set [2] has as its system Intrinsic primary afferent neurons (IPAN) of the jejunum. Briefly: IPAN patch clamp, jejunum with intact luminal epithelium. Set-up: species or system mouse. Particulars: lumen perfused with 30 μM squalamine; 5.5 before. The method, then: Squalamine evoked bursts of action potential lasting for 10 to 30 min after application of a brief (20 ms) 50 μL puff of squalamine onto the epithelium.
To determine the mechanism by which squalamine stimulated intestinal motility, electrophysiological studies were conducted on single neurons within the colon or jejunum of WT mice, using published methods. Intrinsic primary afferent neurons (IPAN) of the jejunum were patch clamped from the adventitial surface, while the lumen of the jejunum was perfused with either Krebs's buffer or buffer containing 30 μM squalamine. The IPANs are multipolar neurons that receive sensory information from the lumen and then communicate with other divisions within the ENS to influence peristalsis as well as direct information rostrally.
In this experiment IPAN excitability was measured by stimulating the neuron with a single standard pulse, and counting the number of subsequent spontaneous discharges.
(The patch-clamp technique gives a direct electrical read-out from membranes.)

A further data set concerns patients with PD. Put plainly: Phase 2 trial Stage 2: circadian rhythm of wrist skin temperature (I-Button). Type of data set: in vivo, human. The method, then: FIGS. 20A-F show the effect of squalamine (ENT-01) on circadian rhythm. The figures depict the results of circadian non-parametric analysis of wrist skin temperature rhythm throughout each condition (baseline, treatment with highest dose of squalamine (ENT-01) and washout). The following parameters were measured: […] (FIG. 20A), inter-daily stability (IS) (FIG. 20B), relative amplitude (RA) (FIG. 20C), circadian function index (FIG. 20D), M5V (FIG. 20E), which refers to the five consecutive hours with the highest temperature or high somnolence, and L10V (FIG. 20F), which indicates the mean of the ten consecutive hours with lowest temperature or high activation. […] Student's paired t-test, *p<0.05, **p<01, ***p<0.001.Values expressed as mean±SEM (n=12 in each condition).
(6) I-Button Temperature Assessment. […] From the collected data, the mesor, amplitude, acrophase (time of peak temperature), Rayleight test (an index of interdaily stability), mean waveforms are calculated.);
Circadian rhythm of skin temperature was evaluable in 12 patients (i.e., those who had recordings that extended from baseline through washout). Circadian system functionality was evaluated by continuously monitoring wrist skin temperature using a temperature sensor (Thermochron iButton DS1921H; Maxim, Dallas, Tex.) (Sarabia et al. 2008). […]

The next data set addresses αS (Homo sapiens, UniProt P37840). Particulars: in vitro (Perni et al. 2017); cited from earlier work.
Data set [3] concerns patients with PD and constipation. Put plainly: Phase 2 trial: adverse events, all dosed patients (Stage 1 and 2). The format is in vivo, human. As to the method: Safety and Adverse Event (AE) Profile: Fifty patients were enrolled and 44 were dosed. In Stage 1, 10 patients were dosed, 1 (10%) withdrew prior to completion and 9 (90%) completed dosing. In stage 2, 6 (15%) patients had ≥3 CSBM/week at the end of the run-in period and were excluded, 34 patients were dosed and bowel response was assessable in 31 (91%). Two patients (5.8%) were terminated prior to completion because of recurrent dizziness, and 3 others withdrew during dosing (8.8%): 2 because of diarrhea and 1 because of holiday. Fifteen patients were randomized.
Most AEs were confined to the GI tract (88% in Stage 1 and 63% in Stage 2). The most common AE was nausea which occurred in 4/10 (40%) patients in Stage 1 and in 18/34 (52.9%) in Stage 2 (Table 6). Diarrhea occurred in 4/10 (40%) patients in Stage 1 and 15/34 (44%) in Stage 2. One patient withdrew because of recurrent diarrhea. Other GI related AEs included abdominal pain 11/44 […], flatulence 3/44 (6.8%), vomiting 3/44 (6.8%), worsening of acid reflux 2/44 (4.5%), and worsening of hemorrhoids 1/44 (2.2%). […] The only other noteworthy AE was dizziness 8/44 (18%). Dizziness was graded as moderate in one patient who was receiving an alpha-adrenergic blocking agent (Terazosin). This patient was withdrawn from the study and recovered spontaneously.

A further data set can be described thus: Solubility in water. The format is physicochemical.

Take `CC(C)[C@@H](CC[C@@H](C)[C@H]1CC[C@H]2[C@@H]3[C@H](O)C[C@H]4C[C@@H](NCCCNCCCCN)CC[C@]4(C)[C@H]3CC[C@]12C)OS(=O)(=O)O` [squalamine]: the gastro-intestinal motility result in data set [1] is reported as “stimulates gastro-intestinal motility”. The “number of discharges stimulated by a single electrical impulse (IPAN excitability)” value in data set [2] was 8.8.

Consider `CC(C)[C@@H](CC[C@@H](C)[C@H]1CC[C@H]2[C@@H]3[C@H](O)C[C@H]4C[C@@H](NCCCNCCCCN)CC[C@]4(C)[C@H]3CC[C@]12C)OS(=O)(=O)O` (single isomer, unassigned; ent-01) [ENT-01], for which the “markers of healthy circadian function (IS, RA, CFI, IV)” value in the data set with patients with PD (fixed dose vs baseline, 12 patients) is reported as “improved all markers of healthy circadian function”. Also, the “circadian parameters (IS, CFI)” value in the data set with patients with PD (wash-out period) was “improvement persisted”. Also, on αS, the “formation of aggregates of αS” value is on record as “inhibit the formation of aggregates”. For the same compound, in data set [3] (1/44), the worsening of hemorrhoids amounted to 2.2%. Also, the “worsening of acid reflux” value in data set [3] (2/44) was 4.5%. In data set [3] (3/44), the flatulence is reported as 6.8% and the vomiting was 6.8%. Moreover, in data set [3] (8/44), the dizziness amounted to 18%. The abdominal pain in data set [3] (11/44) was 32%. For the same compound, the solubility in water result in “Solubility in water” (neutral pH) is reported as “weakly soluble”. For the same compound, the solubility in water result in “Solubility in water” (pH<3.5 (the pH of gastric fluid)) is on record as “readily dissolves”.

The record behind these values is US11083735B2, “Methods for treating sleep disorders, sleep disturbances, and related symptoms using aminosterol compositions” (Enterin, Inc., priority 2017, dated 2021).
